Laboratory results: ChEMBL document CHEMBL1154015, “Structural and theoretical studies of [6-bromo-1-(4-fluorophenylmethyl)-4(1H)-quinolinon-3-yl)]-4-hydroxy-2-oxo-3-butenoïc acid as HIV-1 integrase inhibitor” (Bioorg Med Chem Lett, 2009)

Assays:
[1] = target: T1, Human immunodeficiency virus type 1 integrase (Human immunodeficiency virus 1, UniProt Q7ZJM1); assay: Inhibition of HIV1 integrase strand transfer activity expressed in Escherichia coli BL21 (DE3) by gel based assay in presence of magnesium
T1 sequence (Q7ZJM1 whole entry): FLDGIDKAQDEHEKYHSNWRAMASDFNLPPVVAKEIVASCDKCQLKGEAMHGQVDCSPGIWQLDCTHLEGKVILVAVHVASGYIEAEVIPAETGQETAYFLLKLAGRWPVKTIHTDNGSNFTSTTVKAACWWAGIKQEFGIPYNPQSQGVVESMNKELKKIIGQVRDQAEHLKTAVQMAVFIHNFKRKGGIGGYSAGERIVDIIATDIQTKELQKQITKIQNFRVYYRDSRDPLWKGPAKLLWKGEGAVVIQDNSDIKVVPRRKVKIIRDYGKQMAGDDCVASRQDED

[2] = target: T1, Human immunodeficiency virus type 1 integrase; assay: Inhibition of HIV1 integrase 3'-processing activity expressed in Escherichia coli BL21 (DE3) by gel based assay in presence of magnesium
[3] = Cytotoxicity against HIV1 NL4-3 infected human TZM-bl cells assessed as reduction in cell viability after 3 days by WST1 assay; type: cell-based; conditions: HIV1 NL4-3 infected TZM-bl cells
[4] = test system: Human immunodeficiency virus 1; assay: Antiviral activity against HIV1 NL4-3 infected in human TZM-bl cells treated 4 hrs before infection measured after 48 hrs postinfection by beta-D-galactopyranoside assay; type: functional, organism-based; conditions: Human immunodeficiency virus 1, NL4-3, TZM-bl
[5] = Selectivity index, ratio of CC50 for human TZM-bl cells to EC50 for HIV1 NL4-3; type: toxicity, cell-based; conditions: read-out: Ratio CC50/EC50

Row | IC50 [1] [µM] | IC50 [2] [µM] | EC50 [4] [µM] | Compound | CC50 at 72 h [3] [µM] | selectivity ratio [5]
1 | 0.12 | 78 | 17 | CCOC(=O)C(=O)CC(=O)c1cn(Cc2ccc(F)cc2)c2ccc(Br)cc2c1=O | > 1000 | > 59
2 | 0.03 | 1.6 | 4 | O=C(O)C(=O)CC(=O)c1cn(Cc2ccc(F)cc2)c2ccc(Br)cc2c1=O | > 1000 | > 250
